From patent EP0532328A2, “Novel lignans, intermediates thereof and a process for preparing the intermediates” (TSUMURA & CO., priority 1991, dated 1993) come the findings set out here.

Where two headings read alike, the source gives them in different places.

Data set [1] can be described thus: solubility in a physiological salt solution. Type of data set: physicochemical. The method, then:
The thus-obtained compound V is dissolved in methanol, and a) when R4 is a methoxyl group, a dilute water solution of sodium hydroxide is added to the solution to hydrolyze it, the thus-reacted solution is washed with ethyl acetate, and the water phase is concentrated, followed by acidifying with 10 % hydrochloric acid or b) when R4 is a benzyloxyl group, hydrogen gas is added to compound V in the presence of palladium on carbon, the used palladium on carbon is removed, and the methanol is distilled off, to obtain a compound represented by the constitutional formula: [drawing 11] wherein R1 and R2 are as defined above, said compound being shown as compound VI. The thus-obtained compound VI is dissolved in a solvent such as acetone, the thus-obtained solution is reacted with a dilute water solution of sodium hydroxide, the thus-reacted solution is filtered to obtain a deposit, the thus-obtained deposit is washed with said solvent, and the thus-washed deposit is dried to obtain a novel lignan compound that is one of the present inventions and that is represented by the constitutional formula: [drawing 12] wherein R1 and R2 are as defined above and R5 is a residual group of the sodium salt of an amino acid, said compound being referred to as compound VII. […]

The nature of data set [2]: solubility in water / purified water. Type of data set: physicochemical. The method, then: However, intravenous administrations are necessary to promptly produce drug effects in acute phase symptoms in hepatic lesion, etc., or to lower effective doses. An administration by intravenous drop infusion is not preferable as it causes patients physical and psychological pain. However, due to the low solubility in water (0.15 mg/ml of water), an aqueous injection faces a difficulty in maintaining an effective amount of the compound dissolved in an adequate amount of liquid for a one-time administration, because the amount of liquid per dose of the injection is limited to 10 to 20 ml. To make the amount of liquid adequate for the administration of an amount of the effective compound, a large amount of a solubilizing agent such as polyethylene glycol must be used. However, since this causes adverse effects, such as a hemolysis reaction, the amount used should be limited to a certain extent. Thus the development of a material having medicinal effects equivalent to said compounds and a proper solublity in water, as a substance for intravenous injection, has been sought.
The thus-obtained compound V is dissolved in methanol, and a) when R4 is a methoxyl group, a dilute water solution of sodium hydroxide is added to the solution to hydrolyze it, the thus-reacted solution is washed with ethyl acetate, and the water phase is concentrated, followed by acidifying with 10 % hydrochloric acid or b) when R4 is a benzyloxyl group, hydrogen gas is added to compound V in the presence of palladium on carbon, the used palladium on carbon is removed, and the methanol is distilled off, to obtain a compound represented by the constitutional formula: [drawing 11] wherein R1 and R2 are as defined above, said compound being shown as compound VI. The thus-obtained compound VI is dissolved in a solvent such as acetone, the thus-obtained solution is reacted with a dilute water solution of sodium hydroxide, the thus-reacted solution is filtered to obtain a deposit, the thus-obtained deposit is washed with said solvent, and the thus-washed deposit is dried to obtain a novel lignan compound that is one of the present inventions and that is represented by the constitutional formula: [drawing 12] wherein R1 and R2 are as defined above and R5 is a residual group of the sodium salt of an amino acid, said compound being referred to as compound VII. In this reaction, when instead of a dilute water solution of sodium hydroxide, a dilute water solution of another pharmaceutically acceptable metal hydroxide is used, then a compound is obtained wherein R5 is, instead of the residual group of the sodium salt of amino acid, a pharmaceutically acceptable salt other than the residual group of the sodium salt of the amino acid. Said salts are, for example, a potassium salt and a calcium salt.

Setting [3] is: in words, compared with the corresponding derivative of gomisin A.

Turning to `COc1cc2c(c(OC)c1OC)-c1c(cc(OC)c(OC)c1OC)C[C@](C)(OC(=O)CCC(=O)NCC(=O)O)[C@@H](C)C2` [schizandrin glycinosodium succinate], the “solubility in a physiological salt solution” value in data set [1] (setting [3]) is “quite equivalent to the solubility of each corresponding derivative of gomisin A”. The “solubility in purified water” value in data set [2] (setting [3]) is reported as “quite equivalent to the solubility of each corresponding derivative of gomisin A”.

Consider `COc1cc2c(c(OC)c1OC)-c1c(cc(OC)c(OC)c1OC)C[C@](C)(OC(=O)CCC(=O)O)[C@@H](C)C2` [schizandrin sodium succinate], for which the “solubility in purified water” value in data set [2] (setting [3]) is listed as “quite equivalent to the solubility of each corresponding derivative of gomisin A”.

For `COc1cc2c(c(OC)c1OC)-c1c(cc3c(c1OC)OCO3)C[C@H](C)[C@@](C)(OC(=O)CCC(=O)O)C2` [gomisin Asodium succinate, gomisin A sodium succinate], the “solubility in purified water” value in data set [2] worked out at 30 mg/2 ml. Besides, the “solubility relative to the solubility of gomisin A” value in data set [2] (ratio to gomisin A) was determined as 100 times.

On to `COc1cc2c(c(OC)c1OC)-c1c(cc3c(c1OC)OCO3)C[C@H](C)[C@@](C)(OC(=O)CCC(=O)NCC(=O)O)C2` [gomisin A glycinosodium succinate], for which the “solubility in a physiological salt solution” value in data set [1] was determined as 30 mg/10 ml.
